Assay results reported in ChEMBL document CHEMBL5214965, “Synthesis and antidepressant activity of novel 1-(1-benzoylpiperidin-4-yl) methanamine derivatives selectively targeting SSRI/5-HT1A” (Bioorg Med Chem Lett, 2022).
The source made the active and inactive calls. The rule behind the calls is not given here.

Tests used:
in vitro [1] = conditions: human, liver microsomes
in vitro [2] = conditions: human, liver microsomes; remark: listed apart in the source
Description: Metabolic stability in human liver microsomes assessed as clearance

in vitro [3] = conditions: mouse, liver microsomes
Description: Metabolic stability in mouse liver microsomes assessed as half life

in vitro [4] = conditions: mouse, liver microsomes; remark: listed apart in the source
Description: Metabolic stability in mouse liver microsomes assessed as clearance

[5] = biological target: Sodium-dependent serotonin transporter (Rattus norvegicus) (UniProt P31652); assay: Inhibition of serotonin transporter in rat brain tissue assessed as inhibition of [3H]-5-hydroxytryptamine reuptake at 1 uM relative to control; format: tissue-based
Sodium-dependent serotonin transporter (Rattus norvegicus), sequence (P31652 whole entry): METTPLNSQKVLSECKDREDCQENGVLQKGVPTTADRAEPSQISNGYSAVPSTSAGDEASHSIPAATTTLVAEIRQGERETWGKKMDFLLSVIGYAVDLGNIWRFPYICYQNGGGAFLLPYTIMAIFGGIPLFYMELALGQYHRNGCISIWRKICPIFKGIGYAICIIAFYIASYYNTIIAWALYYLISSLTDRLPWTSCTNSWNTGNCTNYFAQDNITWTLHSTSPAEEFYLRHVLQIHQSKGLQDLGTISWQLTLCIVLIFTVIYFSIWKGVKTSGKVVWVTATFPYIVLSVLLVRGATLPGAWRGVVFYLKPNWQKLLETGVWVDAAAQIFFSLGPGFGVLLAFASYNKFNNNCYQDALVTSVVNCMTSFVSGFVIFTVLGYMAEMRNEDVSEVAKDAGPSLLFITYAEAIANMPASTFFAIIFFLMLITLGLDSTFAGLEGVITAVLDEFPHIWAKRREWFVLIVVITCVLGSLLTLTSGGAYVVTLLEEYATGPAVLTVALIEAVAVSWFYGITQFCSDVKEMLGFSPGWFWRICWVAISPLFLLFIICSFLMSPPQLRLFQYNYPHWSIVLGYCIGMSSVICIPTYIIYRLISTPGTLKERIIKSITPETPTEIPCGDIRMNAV

[6] = biological target: T1, 5-hydroxytryptamine receptor 1A (Homo sapiens) (UniProt P08908); assay: Displacement of [3H][…] from 5-HT1A receptor in human HEK293 cells at 1 uM measured after 60 mins by scintillation counting method relative to control; format: cell-based
T1 sequence (whole entry): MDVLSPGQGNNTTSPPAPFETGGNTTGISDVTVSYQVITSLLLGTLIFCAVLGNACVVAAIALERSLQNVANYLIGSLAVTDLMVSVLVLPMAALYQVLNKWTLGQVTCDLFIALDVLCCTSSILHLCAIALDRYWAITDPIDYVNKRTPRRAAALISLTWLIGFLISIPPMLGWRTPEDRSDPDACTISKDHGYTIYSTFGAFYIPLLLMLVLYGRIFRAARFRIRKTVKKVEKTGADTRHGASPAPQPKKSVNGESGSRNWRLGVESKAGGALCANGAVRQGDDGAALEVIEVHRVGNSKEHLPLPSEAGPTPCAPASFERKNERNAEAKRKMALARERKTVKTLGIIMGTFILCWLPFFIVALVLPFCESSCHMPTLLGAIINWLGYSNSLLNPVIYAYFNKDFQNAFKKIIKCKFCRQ

[7] = biological target: Sodium-dependent serotonin transporter (Rattus norvegicus, UniProt P31652); assay: Inhibition of serotonin transporter in rat brain tissue assessed as inhibition of [3H]-5-hydroxytryptamine reuptake; format: tissue-based
Sodium-dependent serotonin transporter, sequence (P31652 whole entry): as the sequence (P31652 whole entry) above

[8] = biological target: T2, 5-hydroxytryptamine receptor 1A (Homo sapiens, UniProt P08908); assay: Displacement of [3H][…] from 5-HT1A receptor in human HEK293 cells measured after 60 mins by scintillation counting method; format: cell-based
T2 sequence (P08908 whole entry): T1 sequence (whole entry)

Mus musculus [9] = assay: Antidepressant activity in ICR mouse assessed as reduction in immobility time at 0.6 mg/kg, po for 7 days by tail suspension test; format: functional; parameters: scale not given: the % may be the effect or the level left; conditions: time 7 day
Mus musculus [10] = assay: Antidepressant activity in ICR mouse assessed as reduction in immobility time at 10 mg/kg, po for 7 days by tail suspension test; format: functional; parameters: scale not given: the % may be the effect or the level left; conditions: time 7 day
Mus musculus [11] = assay: Antidepressant activity in ICR mouse assessed as reduction in immobility time at 0.6 mg/kg, po for 7 days by forced swimming test; format: functional; parameters: scale not given: the % may be the effect or the level left; conditions: time 7 day
[12] = Binding affinity to 5-HT6 receptor (unknown origin) assessed as inhibition constant; parameters: species or system Homo sapiens
[13] = biological target: 5-hydroxytryptamine receptor 1B (Homo sapiens) (UniProt P28222); assay: Inhibition of 5-HT1B receptor (unknown origin); conditions: concentration not given here
5-hydroxytryptamine receptor 1B (Homo sapiens), sequence (P28222 whole entry): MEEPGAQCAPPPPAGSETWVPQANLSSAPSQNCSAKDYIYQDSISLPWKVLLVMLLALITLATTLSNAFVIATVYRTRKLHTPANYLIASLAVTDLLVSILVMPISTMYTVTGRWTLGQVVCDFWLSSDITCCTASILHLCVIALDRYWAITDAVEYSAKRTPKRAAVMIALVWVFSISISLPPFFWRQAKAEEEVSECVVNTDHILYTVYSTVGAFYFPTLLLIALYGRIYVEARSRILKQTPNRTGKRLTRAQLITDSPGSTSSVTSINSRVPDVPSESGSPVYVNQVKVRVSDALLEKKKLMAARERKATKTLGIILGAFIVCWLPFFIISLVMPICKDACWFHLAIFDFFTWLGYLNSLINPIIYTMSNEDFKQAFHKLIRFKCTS

[14] = biological target: 5-hydroxytryptamine receptor 1D (Homo sapiens) (UniProt P28221); assay: Inhibition of 5-HT1D receptor (unknown origin); conditions: concentration not given here
5-hydroxytryptamine receptor 1D (Homo sapiens), sequence (P28221 whole entry): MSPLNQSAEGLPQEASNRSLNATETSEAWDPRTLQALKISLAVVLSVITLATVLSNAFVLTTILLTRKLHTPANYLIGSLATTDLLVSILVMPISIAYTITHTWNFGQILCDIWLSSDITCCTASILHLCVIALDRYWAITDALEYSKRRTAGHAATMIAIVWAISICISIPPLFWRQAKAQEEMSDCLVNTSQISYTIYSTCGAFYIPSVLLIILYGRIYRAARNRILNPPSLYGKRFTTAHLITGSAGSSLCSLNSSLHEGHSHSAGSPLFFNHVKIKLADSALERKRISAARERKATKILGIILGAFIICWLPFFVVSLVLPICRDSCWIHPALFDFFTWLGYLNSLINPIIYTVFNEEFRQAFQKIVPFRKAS

[15] = biological target: 5-hydroxytryptamine receptor 2A (Homo sapiens) (UniProt P28223); assay: Inhibition of 5-HT2A receptor (unknown origin); conditions: concentration not given here
5-hydroxytryptamine receptor 2A (Homo sapiens), sequence (P28223 whole entry): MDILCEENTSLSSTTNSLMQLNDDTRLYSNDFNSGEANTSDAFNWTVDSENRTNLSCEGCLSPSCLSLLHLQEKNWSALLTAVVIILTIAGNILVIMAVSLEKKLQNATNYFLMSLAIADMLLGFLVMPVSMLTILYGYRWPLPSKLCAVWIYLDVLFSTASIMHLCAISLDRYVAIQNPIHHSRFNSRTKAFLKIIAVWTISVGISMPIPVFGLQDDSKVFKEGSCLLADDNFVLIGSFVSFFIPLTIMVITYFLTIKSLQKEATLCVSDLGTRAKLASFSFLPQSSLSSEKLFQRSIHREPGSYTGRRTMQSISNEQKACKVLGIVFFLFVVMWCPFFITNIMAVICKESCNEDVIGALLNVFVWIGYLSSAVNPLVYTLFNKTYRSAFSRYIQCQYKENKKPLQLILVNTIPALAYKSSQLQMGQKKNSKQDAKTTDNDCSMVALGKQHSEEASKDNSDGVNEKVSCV

[16] = biological target: T3, 5-hydroxytryptamine receptor 2C (Homo sapiens) (UniProt P28335); assay: Inhibition of 5-HT2C receptor (unknown origin); conditions: concentration not given here
T3 sequence (whole entry): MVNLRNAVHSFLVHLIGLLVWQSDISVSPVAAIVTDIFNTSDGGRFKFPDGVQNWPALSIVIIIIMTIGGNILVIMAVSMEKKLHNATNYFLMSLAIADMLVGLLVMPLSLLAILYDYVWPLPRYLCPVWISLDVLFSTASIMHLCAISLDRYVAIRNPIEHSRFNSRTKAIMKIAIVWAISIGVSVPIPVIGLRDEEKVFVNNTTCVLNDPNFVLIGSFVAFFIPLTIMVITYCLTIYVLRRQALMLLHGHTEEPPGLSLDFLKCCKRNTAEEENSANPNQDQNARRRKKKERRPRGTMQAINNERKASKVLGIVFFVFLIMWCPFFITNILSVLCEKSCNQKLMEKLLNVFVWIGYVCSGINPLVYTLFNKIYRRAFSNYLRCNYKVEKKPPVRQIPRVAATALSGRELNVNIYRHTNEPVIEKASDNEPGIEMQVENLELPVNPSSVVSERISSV

[17] = biological target: Serotonin 3 (5-HT3) receptor (Homo sapiens) (UniProt P46098+A5X5Y0+O95264+Q70Z44+Q8WXA8); assay: Inhibition of 5-HT3 receptor (unknown origin); format: protein-complex assay; conditions: concentration not given here
Homo sapiens [18] = organism: Homo sapiens; assay: Inhibition of 5-HT6 receptor (unknown origin); conditions: concentration not given here
Homo sapiens [19] = organism: Homo sapiens; assay: Inhibition of 5-HT7 receptor (unknown origin); conditions: concentration not given here
[20] = Binding affinity to 5-HT7 receptor (unknown origin) assessed as inhibition constant; parameters: species or system Homo sapiens
Mus musculus [21] = assay: Antidepressant activity in ICR mouse assessed as reduction in immobility time at 0.6 to 80 mg/kg, po for 7 days by forced swimming test; format: functional, organism-based; conditions: dose 0.6-80 mg/kg, time 7.0 day

Row | Structure (SMILES) | half-life (in vitro [1]) | microsomal CLint (in vitro [2]) | half-life (in vitro [3]) | microsomal CLint (in vitro [4]) | inhibition [5] | inhibition [6] | further results
1 | N#Cc1ccc2[nH]cc(CCCCN3CCN(c4ccc5oc(C(N)=O)cc5c4)CC3)c2c1 [VILAZODONE] | 26.9 min | 51.6 µL/min/mg | 23.1 min | 60.6 µL/min/mg | – | – | –
2 | Cc1ccc(C(=O)N2CCC(CNCCCc3c[nH]c4ccc(F)cc34)CC2)cc1 | 4.48 min | 310 µL/min/mg | – | – | 99% | 99% | –
3 | NC(=O)c1ccc(C(=O)N2CCC(CNCCCc3c[nH]c4ccc(F)cc34)CC2)cc1 | 330 min | 4.2 µL/min/mg | 102 min | 13.6 µL/min/mg | 100% | 98% | –
4 | O=C(c1ccc(Cl)cc1)N1CCC(CNCCCc2c[nH]c3ccc(F)cc23)CC1 | 19.5 min | 70.9 µL/min/mg | – | – | 103% | 100% | –
5 | NC(=O)c1cccc(C(=O)N2CCC(CNCCCc3c[nH]c4ccc(F)cc34)CC2)c1 | 154 min | 9 µL/min/mg | 277 min | 5 µL/min/mg | 102% | 98% | –
6 | O=C(c1ccc(F)c(Cl)c1)N1CCC(CNCc2cccc(-n3cccn3)n2)CC1 | – | – | – | – | – | – | Ki [8]: 1.54 nM
7 | O=C(c1ccc(F)cc1)N1CCC(CNCCCc2c[nH]c3ccc(F)cc23)CC1 | 16.4 min | 84.3 µL/min/mg | – | – | 101% | 100% | –
8 | Fc1ccc(N2CCN(CCCc3c[nH]c4ccc(F)cc34)CC2)c(-c2ccccc2)c1 | – | – | – | – | – | – | IC50 [7]: 177 nM; Ki ([8]; read-out: Ki): 12 nM
9 | Fc1ccc(OCCN2CCC(c3c[nH]c4ccc(F)cc34)CC2)c(-c2ccccc2)c1 | – | – | – | – | – | – | IC50 [7]: 0.5 nM; Ki ([8]; read-out: Ki): 0.2 nM
10 | NC(=O)c1ccccc1C(=O)N1CCC(CNCCCc2c[nH]c3ccc(F)cc23)CC1 | 10 min | 138 µL/min/mg | 13.2 min | 105 µL/min/mg | 102% | 98% | –

Now from value to compound, other results behind:

Row | half-life (in vitro [1]) | microsomal CLint (in vitro [2]) | half-life (in vitro [3]) | microsomal CLint (in vitro [4]) | inhibition [5] | inhibition [6] | Structure (SMILES) | further results
11 | 30.5 min | 45.4 µL/min/mg | 30.8 min | 44.9 µL/min/mg | 101% | 100% | O=C(c1ccc(Cl)c(Cl)c1)N1CCC(CNCCCc2c[nH]c3ccc(F)cc23)CC1 | IC50 [7]: 17 nM; Ki ([8]; read-out: Ki): 0.097 nM
12 | 11.7 min | 118 µL/min/mg | 45 min | 30.8 µL/min/mg | 103% | 99% | O=C(c1ccc(F)c(Cl)c1)N1CCC(CNCCCCc2c[nH]c3ccc(F)cc23)CC1 | –
13 | 12.2 min | 113 µL/min/mg | – | – | 103% | 100% | N#Cc1ccc2[nH]cc(CCCNCC3CCN(C(=O)c4ccc(F)c(Cl)c4)CC3)c2c1 | –
14 | – | – | – | – | 101% | 92% | O=C(c1ccc(F)c(Cl)c1)N1CCC(CNCCCCCc2c[nH]c3ccc(F)cc23)CC1 | –
15 | 26.8 min | 51.8 µL/min/mg | 61.6 min | 22.5 µL/min/mg | 101% | 99% | O=C(c1ccc(F)c(Cl)c1)N1CCC(CNCCCc2c[nH]c3ccc(F)cc23)CC1 | Activity (Mus musculus [9]): 19%; Activity (Mus musculus [10]): 24%; Activity (Mus musculus [11]): 34%; Ki [12]: 150 nM; inhibition [13]: < 75%; IC50 [7]: 8.2 nM; Ki ([8]; read-out: Ki): 0.069 nM; inhibition [14]: < 75%; inhibition [15]: < 75%; inhibition [16]: < 75%; inhibition [17]: < 75%; inhibition (Homo sapiens [18]): 82%; inhibition (Homo sapiens [19]): 86.5%; Ki [20]: 36 nM; Activity (Mus musculus [21]): Active
16 | – | – | – | – | 101% | 93% | O=C(c1ccc(F)c(Cl)c1)N1CCC(CNCCc2c[nH]c3ccc(F)cc23)CC1 | –
17 | 3.86 min | 559 µL/min/mg | – | – | 103% | 100% | Cc1cc(C(=O)N2CCC(CNCCCc3c[nH]c4ccc(F)cc34)CC2)ccc1F | –
18 | – | – | – | – | 102% | 94% | CN(CCCc1c[nH]c2ccc(F)cc12)CC1CCN(C(=O)c2ccc(F)c(Cl)c2)CC1 | –
19 | – | – | – | – | 101% | 86% | CCCN(CCCc1c[nH]c2ccc(F)cc12)CC1CCN(C(=O)c2ccc(F)c(Cl)c2)CC1 | –
20 | – | – | – | – | 102% | 96% | O=C(c1ccc(F)c(Cl)c1)N1CCC(NCCCc2c[nH]c3ccc(F)cc23)CC1 | –
21 | 9.07 min | 153 µL/min/mg | 27.8 min | 49.8 µL/min/mg | 103% | 101% | O=C(c1cccc(Cl)c1)N1CCC(CNCCCc2c[nH]c3ccc(F)cc23)CC1 | –
22 | 19.5 min | 71.2 µL/min/mg | – | – | 103% | 99% | O=C(c1ccc(F)c(F)c1)N1CCC(CNCCCc2c[nH]c3ccc(F)cc23)CC1 | –
